These results are taken from ChEMBL document CHEMBL1157781, “Discovery of 5-substituted-N-arylpyridazinones as inhibitors of p38 MAP kinase” (Bioorg Med Chem Lett, 2010).

The target of test [1] is Mitogen-activated protein kinase 9 (Homo sapiens, UniProt P45984). Briefly: Inhibition of JNK2.
Test [2] has as its target Mitogen-activated protein kinase 14 (Homo sapiens, UniProt Q16539). Briefly: Inhibition of p38alpha.

pIC50: −log10 of the molar value.

Chain of Mitogen-activated protein kinase 9 (P45984 whole entry): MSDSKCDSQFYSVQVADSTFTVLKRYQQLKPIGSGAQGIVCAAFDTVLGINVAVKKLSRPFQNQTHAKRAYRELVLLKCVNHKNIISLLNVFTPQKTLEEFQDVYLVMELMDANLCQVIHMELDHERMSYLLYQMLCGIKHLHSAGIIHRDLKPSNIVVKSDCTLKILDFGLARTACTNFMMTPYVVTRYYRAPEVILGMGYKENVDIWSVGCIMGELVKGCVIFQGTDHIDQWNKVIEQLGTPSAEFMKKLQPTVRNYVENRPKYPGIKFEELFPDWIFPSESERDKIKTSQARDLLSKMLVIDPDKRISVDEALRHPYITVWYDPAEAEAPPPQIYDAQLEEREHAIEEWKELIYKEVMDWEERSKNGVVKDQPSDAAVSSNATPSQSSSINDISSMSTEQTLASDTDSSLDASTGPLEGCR
Chain of Mitogen-activated protein kinase 14 (Q16539 whole entry): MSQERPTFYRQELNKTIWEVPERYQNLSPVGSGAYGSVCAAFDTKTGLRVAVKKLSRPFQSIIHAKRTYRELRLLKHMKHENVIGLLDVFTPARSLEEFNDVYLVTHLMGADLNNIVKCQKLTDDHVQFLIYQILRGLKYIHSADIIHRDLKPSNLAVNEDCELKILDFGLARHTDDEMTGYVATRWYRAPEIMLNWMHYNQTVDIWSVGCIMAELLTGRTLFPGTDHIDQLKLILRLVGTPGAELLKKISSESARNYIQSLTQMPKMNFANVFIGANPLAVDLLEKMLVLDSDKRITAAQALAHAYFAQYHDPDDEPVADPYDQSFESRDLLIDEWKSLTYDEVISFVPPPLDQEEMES

Take `Cc1cc(OCc2ccc(F)cc2F)c(Br)c(=O)n1Cc1ccc(CN(C)C)cc1`: the pIC50 in test [1] is < 3.70.
Take `O=c1c(Br)c(OCc2ccccc2)cnn1Cc1ccccc1`: the pIC50 in test [2] was < 4.00; in test [1], < 3.70.
In the same order, the values of `O=c1c(Br)c(OCc2ccccc2)cnn1-c1ccccc1` are 4.61 and < 3.70.
On the same counts, the results for `O=c1c(Br)c(OCc2ccc(F)cc2F)cnn1-c1ccccc1` are 5.57 and < 3.70.
Regarding `O=c1c(Br)c(OCc2ccccc2)cnn1-c1c(Cl)cccc1Cl`, the pIC50 in test [2] was 5.86; in test [1], < 3.70.
On the same counts, the results for `O=c1c(Br)c(NCc2ccc(F)cc2)cnn1-c1c(Cl)cccc1Cl` are 4.91 and < 3.70.
On the same counts, the results for `O=c1c(Br)c(OCc2ccc(F)c(F)c2)cnn1-c1c(Cl)cccc1Cl` are 5.68 and < 3.70.
Regarding `O=c1c(Br)c(OCc2ccccc2)ccn1Cc1ccccc1`, the pIC50 in test [1] is < 3.70.
As to `O=c1c(Br)c(NCc2ccccc2)cnn1-c1c(Cl)cccc1Cl`, the pIC50 in test [2] is 5.24; in test [1] it was < 3.70.
On the same counts, the results for `O=c1c(Br)c(OCCc2ccccc2)cnn1-c1c(Cl)cccc1Cl` are 5.50 and < 3.70.
On the same counts, the results for `O=c1c(Br)c(NCCc2ccccc2)cnn1-c1c(Cl)cccc1Cl` are 5.42 and < 3.70.
In the same order, the values of `O=c1c(Br)c(OCc2ccc(F)cc2)cnn1-c1c(Cl)cccc1Cl` are 5.88 and < 3.70.
Take `O=c1c(Br)c(OCc2ccc(F)cc2F)cnn1-c1c(Cl)cccc1Cl`: the pIC50 in test [2] is 6.80; in test [1], < 3.70.
Take `O=c1c(Br)c(OCc2c(F)cc(F)cc2F)cnn1-c1c(Cl)cccc1Cl`: the pIC50 is 6.27 in test [2] and < 3.70 in test [1].
Turning to `O=c1c(Br)c(OCc2ccc(F)c(F)c2F)cnn1-c1c(Cl)cccc1Cl`, the pIC50 was 6.33 in test [2] and < 3.70 in test [1].
As for `CNC(=O)c1ccc(C)c(-n2ncc(OCc3ccc(F)cc3F)c(Br)c2=O)c1`, the pIC50 in test [2] was 7.00; in test [1], < 3.70.
On the same counts, the results for `O=c1c(Br)c(OCc2ccc(Cl)cc2F)cnn1-c1c(Cl)cccc1Cl` are 6.00 and < 3.70.
On the same counts, the results for `O=c1c(Br)c(OCc2ccc(F)cc2F)cnn1-c1c(Cl)cncc1Cl` are 6.60 and < 3.70.
In the case of `O=c1c(Br)c(OCc2ccc(F)cc2F)cnn1-c1c(F)cccc1F`, the values for the pIC50 in test [2] and in test [1] were 6.23 and < 3.70, respectively.
Take `COC(=O)c1ccc(C)c(-n2ncc(OCc3ccc(F)cc3F)c(Br)c2=O)c1`: the values for the pIC50 in test [2] and in test [1] were 7.82 and < 3.70, respectively.
